According to PMC5862567, “Validating and enabling phosphoglycerate dehydrogenase (PHGDH) as a target for fragment-based drug discovery in PHGDH-amplified breast cancer” (Oncotarget, 2016):
Several values for one entry are separate records, joined by “and”; a condition that tells them apart may be missing. Identical values can stand only once. Entries after “also recorded” stand apart in the source; their conditions may differ. Like-named read-outs stand apart in the source and are kept apart here.

Tests used:
[1] = system: PHGDH; conditions: cited from earlier work
[2] = target: T1, recombinant full-length PHGDH (Homo sapiens, UniProt O43175); test: Differential scanning fluorimetry (DSF) thermal shift assay, fragment screen; assay type: binding; design: key to Z score: Z-score of Tm shift, in standard deviations from the screen mean; conditions: for Z score: average Z score of primary fragment screens by DSF; for ΔTm at 1000 µM: fragment 1 mM, primary DSF screen, 15 μM PHGDH, read-out: ΔTm (screening hit); for ΔTm (repurchased fragment): DSF
T1 construct: encoding for the full-length enzyme (aa 1-533); His6 (N, cleaved yes); TEV protease recognition site (N, cleaved yes); made in house; host or cells: E. coli Rosetta (DE3)
T1 sequence (O43175 1-533): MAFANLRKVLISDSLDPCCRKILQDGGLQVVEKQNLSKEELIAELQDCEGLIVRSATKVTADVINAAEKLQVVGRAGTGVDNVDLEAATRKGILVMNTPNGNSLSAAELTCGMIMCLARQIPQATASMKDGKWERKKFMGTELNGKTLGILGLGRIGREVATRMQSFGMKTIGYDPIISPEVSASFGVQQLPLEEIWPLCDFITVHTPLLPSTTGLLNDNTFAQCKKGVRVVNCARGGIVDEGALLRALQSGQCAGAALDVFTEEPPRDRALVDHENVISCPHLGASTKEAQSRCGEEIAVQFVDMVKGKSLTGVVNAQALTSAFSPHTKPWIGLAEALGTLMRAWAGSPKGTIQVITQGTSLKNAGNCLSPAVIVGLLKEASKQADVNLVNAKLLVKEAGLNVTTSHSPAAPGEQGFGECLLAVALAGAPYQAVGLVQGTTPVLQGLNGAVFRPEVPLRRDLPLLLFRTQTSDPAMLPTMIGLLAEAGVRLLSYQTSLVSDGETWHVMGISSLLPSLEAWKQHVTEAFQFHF
Procedure: In this study a ‘rule-of-three’ [18] compliant library of 600 fragments (CRT Cambridge, UK) was screened against recombinant full-length PHGDH using a differential scanning fluorimetry (DSF) assay. PHGDH has an average melting temperature (Tm) of 54 °C. Fragments were screened at 1 mM in the presence of 1 % DMSO. 1 mM NADH was used as positive control, and gave an increased Tm of 61 °C, corresponding to a Δ Tm of 7 °C (Supplementary Figure S2). Hits were determined based on an average Z-score ≥ 1, i.e. to a change in Tm of PHGDH equal to or greater than one standard deviation of the mean (Supplementary Table S1). Applying this threshold, 42 compounds were classified as hits, which corresponds to a hit rate of […]. A subset of 15 fragments was commercially available and were repurchased and further evaluated in an ITC competition experiment (Figure 3, Table 1, Supplementary Figure S3). The ITC competition experiments confirmed binding of 13 fragments to the cofactor-binding pocket of PHGDH. […] In order to further characterise the hits, and to help us prioritise their use as seeds for further hit-expansion studies, we undertook a crystallographic investigation of their respective binding modes.
The DSF assay was performed in 384-well plates (Corning, black) in 25 mM HEPES, pH 7.5, 100 mM NaCl, 0.5 mM TCEP, 10 x SYPRO® Orange (Thermo Fisher Scientific), in a final volume of 15 μL containing 15 μM PHGDH and […]. The fragments were added from a 100 mM master stock in 100 % DMSO to a final concentration of 1 mM using an ECHO® acoustic liquid handler (Labcyte). Reference wells contained DMSO only and 1 mM NADH was used as positive control.
The heat denaturation profile of PHGDH was followed using the fluorescence of Sypro Orange with excitation and emission wavelengths of 470 and 570 nm, respectively. Analysis was performed in GraphPad Prism using the Boltzmann equation to determine the melting temperature, Tm, which is the inflection point of the sigmoidal denaturation curve.

[3] = target: T2, sPHGDH (aa 3-314), cofactor-binding pocket (Homo sapiens, UniProt O43175); test: ITC competition experiment (NADH titrated into sPHGDH premixed with fragment); conditions: for Kd / ΔH / ΔS: competition ITC, 5 mM fragment, 25 °C; for Kd: 0.5 mM NADH into 0.05 mM sPHGDH, 5 % DMSO; for LE: ΔG per number of non-hydrogen atoms (= #)
T2 construct: the truncated version (sPHGDH, aa 3-314); His6 (N, cleaved yes); TEV protease recognition site (N, cleaved yes); made in house; host or cells: E. coli Rosetta (DE3)
T2 sequence (O43175 3-314): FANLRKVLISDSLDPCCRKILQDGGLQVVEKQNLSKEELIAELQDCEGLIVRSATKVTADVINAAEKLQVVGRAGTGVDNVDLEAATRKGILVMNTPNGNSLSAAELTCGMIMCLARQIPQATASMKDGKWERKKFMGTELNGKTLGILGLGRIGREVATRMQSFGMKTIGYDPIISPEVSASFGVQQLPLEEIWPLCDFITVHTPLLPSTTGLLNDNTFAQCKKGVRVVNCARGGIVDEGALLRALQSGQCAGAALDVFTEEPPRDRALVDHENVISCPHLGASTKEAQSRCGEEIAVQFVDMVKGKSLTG
Procedure: To remove residual bound cofactor, sPHGDH was incubated with 0.5 equivalents of activated charcoal for 30 minutes at room temperature prior to performing the ITC experiments. […] 1 x 0.5 μL, followed by 17 x 2 μL injections of ligands into protein with 120 seconds spacing between the injections was conducted. Titration of 0.5 mM NADH in 5 % DMSO into 0.05 mM sPHGDH in 5 % DMSO was used as reference.

| SMILES | Z score [2] | ΔTm at 1000 µM [2] [°C] | ΔTm (repurchased fragment) [2] [°C] | Kd [3] | Kd ([3]; read-out: Kd) | ΔH [3] [kcal/mol] | ΔS [3] | LE [3] | fold reduced affinity compared to fragment 16 ([3]; competitive ITC Kd, versus 16) [fold] | fold weaker binding affinity compared to 17 ([3]; competitive ITC Kd, versus 17) [fold] | ΔTm ([2]; 1 mM NADH positive control) [°C] | Tm of PHGDH in presence of compound ([2]; 1 mM NADH positive control, PHGDH alone Tm 54 °C) [°C] | mode of PHGDH inhibition [1] |
| --- | --- | --- | --- | --- | --- | --- | --- | --- | --- | --- | --- | --- | --- |
| CCOC(=O)c1sc(NC(=O)c2ccco2)c(SC#N)c1C [CBR-5884] | – | – | – | – | – | – | – | – | – | – | – | – | non-competitive |
| O=C1COc2cc(O)ccc21 [Fragment 8, 6-Hydroxy-2,3-dihydrobenzo[b] furan-3-one] | 1.5 ± 0.4 | 1.7 ± 0.6 | 0.4 ± 0.4 | – | 5.9 ± 1.5 mM | -69.96 | -1.02 kJ (mol x K) | 0.28 kcal/(mol·heavy atom) | – | – | – | – | – |
| Cn1ccc2cc(N)ccc21 [Fragment 9, 5-Amino-1-methyl-1H-indole] | 1.8 ± 1.4 | 2 ± 1.2 | 1.2 ± 0.4 | – | 11.1 ± 5 mM | -24.38 | -0.38 kJ (mol x K) | 0.24 kcal/(mol·heavy atom) | – | – | – | – | – |
| Cc1cncc(Oc2cccc(N)c2)n1 [Fragment 11, 3-(6-Methylpyrazin-2-yl)oxyaniline] | 1.1 ± 0.6 | 1.7 ± 0.7 | -0.6 ± 0.6 | – | 11.5 ± 8.4 mM | -2.75 | -0.08 kJ (mol x K) | 0.18 kcal/(mol·heavy atom) | – | – | – | – | – |
| c1ccc(Cn2ccnc2)cc1 [Fragment 12, 1-Benzylimidazole] | 1.1 ± 0.2 | 1.3 ± 0.9 | -0.6 ± 0.4 | – | 11.8 ± 9.6 mM | -15.4 | -0.25 kJ (mol x K) | 0.22 kcal/(mol·heavy atom) | – | – | – | – | – |
| Cc1ccc(F)cc1C(=O)O [Fragment 14, 5-Fluoro-2-methylbenzoic acid] | 1.1 ± 0.2 | 1.4 ± 0.5 | 0.4 ± 0.3 | – | 26 mM and 26.2 mM | -11.2 | -0.19 kJ (mol x K) | 0.2 kcal/(mol·heavy atom) | – | – | – | – | – |
| COc1ccc(NC(C)=O)cc1Cl [Fragment 15, N-(3-chloro-4-methoxyphenyl) acetamide] | 1.2 ± 0.3 | 1.3 ± 0.2 | -0.2 ± 0.4 | – | 2.8 ± 1.6 mM | -419.02 | -5.93 kJ (mol x K) | 0.27 kcal/(mol·heavy atom) | – | – | – | – | – |
| Oc1noc2ccccc12 [Fragment 16, 3-Hydroxy benzisoxazole] | 1.4 ± 0.7 | 2.5 ± 0.7 | 0.2 ± 0.3 | – | 6.5 ± 4.7 mM | -91.44 | -1.33 kJ (mol x K) | 0.3 kcal/(mol·heavy atom) | – | – | – | – | – |
| Cc1cccc2c(O)noc12 [Fragment 18] | – | – | – | – | 15.9 ± 7.4 mM | -46.44 | -0.67 kJ (mol x K) | 0.22 kcal/(mol·heavy atom) | 2.5 | – | – | – | – |
| Oc1noc2ccc(Br)cc12 [Fragment 20] | – | – | – | no binding affinity was detected; also recorded: Compound precipitated | – | – | – | – | – | – | – | – | – |

Continued, in another order:

| Z score [2] | ΔTm at 1000 µM [2] [°C] | ΔTm (repurchased fragment) [2] [°C] | Kd [3] | Kd ([3]; read-out: Kd) | ΔH [3] [kcal/mol] | ΔS [3] | LE [3] | fold reduced affinity compared to fragment 16 ([3]; competitive ITC Kd, versus 16) [fold] | fold weaker binding affinity compared to 17 ([3]; competitive ITC Kd, versus 17) [fold] | ΔTm ([2]; 1 mM NADH positive control) [°C] | Tm of PHGDH in presence of compound ([2]; 1 mM NADH positive control, PHGDH alone Tm 54 °C) [°C] | SMILES | mode of PHGDH inhibition [1] |
| --- | --- | --- | --- | --- | --- | --- | --- | --- | --- | --- | --- | --- | --- |
| 1.0 ± 1.0 | 2 ± 2.1 | -0.1 ± 0.2 | No competition | – | – | – | – | – | – | – | – | CCc1nc(C)c[nH]1 [Fragment 2, 2-Ethyl-4-methylimidazole] | – |
| 1.0 ± 0.4 | 2.2 ± 0.8 | -0.2 ± 0.2 | – | 5.8 ± 2 mM | -111.7 | -1.61 kJ (mol x K) | 0.23 kcal/(mol·heavy atom) | – | – | – | – | Cn1nc(-c2ccccc2)cc1N [Fragment 3, 1-Methyl-3-phenyl-1H-pyrazol-5-amine] | – |
| 1.0 ± 0.8 | 2.4 ± 1.1 | 0.2 ± 0.3 | – | 12.8 ± 2.7 mM | 1.98 | -0.01 kJ (mol x K) | 0.21 kcal/(mol·heavy atom) | – | – | – | – | Oc1ncnc2cccc(F)c12 [Fragment 4, 5-Fluoro-4-hydroxy quinazoline] | – |
| 1.0 ± 0.8 | 2.3 ± 1 | -0.1 ± 0.2 | – | 1.6 ± 0.2 mM | -1.29 | -0.07 kJ (mol x K) | 0.35 kcal/(mol·heavy atom) | – | – | – | – | NC(=O)c1ccc(F)c(Cl)c1 [Fragment 5, 3-Chloro-4-fluorobenzamide] | – |
| 1.1 ± 0.7 | 2.4 ± 1.2 | 0.2 ± 0.2 | – | 1.5 ± 0.2 mM | -380.95 | -5.40 kJ (mol x K) | 0.38 kcal/(mol·heavy atom) | – | – | – | – | Cc1cccc2cc[nH]c12 [Fragment 6, 7-Methyl-1H-indole] | – |
| 1.2 ± 0.9 | 1.8 ± 1.7 | -0.3 ± 0.2 | – | 16.6 ± 10.4 mM | 3.78 | 0.02 kJ (mol x K) | 0.15 kcal/(mol·heavy atom) | – | – | – | – | Cc1cncc(Oc2cccc(CO)c2)n1 [Fragment 7, [3-(6-Methylpyrazin-2-yl)oxyphenyl] methanol] | – |
| 1.0 ± 0.9 | 1.4 ± 0.6 | -0.8 ± 0.3 | – | – | -62.33 | -0.91 kJ (mol x K) | – | – | – | – | – | Nc1cccc(-c2cnco2)c1 [Fragment 10, 3-(1,3-oxazol-5-yl)aniline] | – |
| 1.4 ± 0.2 | 0.8 ± 0.1 | 0.3 ± 0.1 | No competition | – | – | – | – | – | – | – | – | Oc1ccnc(O)c1 [Fragment 13, 2,4.Dihydroxy pyridine] | – |
| – | – | – | – | 2.4 ± 0.7 mM | -362.64 | -5.14 kJ (mol x K) | 0.32 kcal/(mol·heavy atom) | – | – | – | – | Oc1noc2cc(Cl)ccc12 [Fragment 17, 6-chloro-3-hydroxybenzisoxazole] | – |
| – | – | – | – | 15.4 ± 10.2 mM | -45.43 | -0.67 kJ (mol x K) | 0.22 kcal/(mol·heavy atom) | – | 6 | – | – | Oc1noc2ccc(F)cc12 [Fragment 19, 5-fluoro-3-hydroxybenzisoxazole] | – |
| – | – | – | – | – | – | – | – | – | – | 7 | 61 | NC(=O)C1=CN([C@@H]2O[C@H](COP(=O)(O)OP(=O)(O)OC[C@H]3O[C@@H](n4cnc5c(N)ncnc54)[C@H](O)[C@@H]3O)[C@@H](O)[C@H]2O)C=CC1 [NADH, reference compound] | – |
